In patent publication US7217865B2, “Transgenic high tryptophan plants” (Monsanto Technology LLC, priority 2001, dated 2007):
Like-named read-outs stand apart in the source and are kept apart here.

Legend:
Type in all cases: biochemical
[1] = biological target: Agrobacterium tumefaciens anthranilate synthase variant S51C, SEQ ID NO:61 (Agrobacterium fabrum, UniProt A9CI26, S51C); test: Anthranilate synthase enzyme assay and kinetic analysis, S51C mutant
Text: (§1) Site directed mutagenesis was used to generate ten single amino acid substitutions six sites. The mutations were introduced into the Agrobacterium tumefaciens AS in pMON34705 using the QuikChange™ Site-Directed Mutagenesis Kit (Stratagene). The primers used for site directed mutagenesis were SEQ ID NO:9–42 (FIG. 7; F=forward, R=reverse). Each primer sequence is specific for alteration of the nucleic acid at a specific location in the sequence and thus changing the encoded codon to code for a new amino acid. For example, S51C designates a change from serine to cysteine at amino acid position 51 in the Agrobacterium tumefaciens AS peptide sequence.
(§2) Following mutagenesis the sequence of the entire gene was reconfirmed and the variants expressed and purified from E. coli as described below for the wild type enzyme. The resultant plasmids comprising mutant Agrobacterium tumefaciens AS are suitably cloned into a plasmid for overproduction of protein using the T7 expression system as described in Example 1.
(§3) Agrobacterium tumefaciens AS wild type and mutant enzymes were expressed in E. coli as described in Example 1. The purification of all the Agrobacterium tumefaciens AS enzymes, including wild type and mutants therof, was performed at 4° C. The cells (approximate wet weight of 1 g) were suspended in 20 ml of purification buffer (50 mM potassium phosphate, pH […], 10 mM 2-mercaptoethanol, 10% glycerol) and lysed by ultrasonication (Branson sonifier Cell Disruptor, W185). Supernatant was collected after centrifugation of the homogenate at 20,000× g for 15 min. The supernatant was subjected to ammonium sulfate fractionation (30 to 65% saturation). The precipitate was collected after centrifugation at 20,000× g for […] and dissolved in 3 ml of the purification buffer and then loaded as a whole on an Econo-Pac 10DG desalting column, pre-equilibrated with the same buffer. Fractions containing the enzyme were detected by the developed assay and pooled. The pooled enzyme (4.3 mls) was loaded on a 10 ml DEAE Sephacel (Pharmacia Biotech) column (1.5×7.5 cm) equilibrated with the same buffer. The column was washed with 30 ml of the purification buffer and the enzyme was eluted with 30 ml of 50 mM NaCl in the same buffer. Fractions containing high AS activity were pooled and precipitated by 65% ammonium sulfate saturation and isolated and desalted as above. Fractions containing the enzyme were pooled and stored at −80° C.
(§4) The standard assay for Agrobacterium tumefaciens AS was performed at 25° C. in an assay buffer containing 100 mM potassium phosphate, pH 7.0, 1 0 mM MgCl2, 1 mM dithiothreitol, 200 μM chorismate and 10 mM L-glutamine. The reaction was started by adding 30 μl of enzyme to the reaction mixture and mixing. The formation of anthranilate was directly monitored by the absorbance increase at […] for 3 min. Initial rate of reaction was calculated as unit absorbance increase per second based on the slope of the absorbance change over the reaction time. Km for chorismate (Km^Cho) was determined in the total volume of 1 ml assay buffer containing 100 mM potassium phosphate, pH 7.0, 10 mM MgCl2, 1 mM dithiothreitol with 10 mM L-glutamine and varying the concentration of chorismate between 2.5–100 μM chorismate. […] Kinetic parameters and IC50 of AS were calculated after fitting the data to a non-linear regression program (GraFit).

[2] = biological target: Agrobacterium tumefaciens anthranilate synthase (AgroAS), wild type, SEQ ID NO:4 (Agrobacterium fabrum, UniProt A9CI26); test: Anthranilate synthase enzyme assay and kinetic analysis, wild type
Agrobacterium tumefaciens anthranilate synthase (AgroAS), wild type, SEQ ID NO:4, sequence (A9CI26 entry or part of it): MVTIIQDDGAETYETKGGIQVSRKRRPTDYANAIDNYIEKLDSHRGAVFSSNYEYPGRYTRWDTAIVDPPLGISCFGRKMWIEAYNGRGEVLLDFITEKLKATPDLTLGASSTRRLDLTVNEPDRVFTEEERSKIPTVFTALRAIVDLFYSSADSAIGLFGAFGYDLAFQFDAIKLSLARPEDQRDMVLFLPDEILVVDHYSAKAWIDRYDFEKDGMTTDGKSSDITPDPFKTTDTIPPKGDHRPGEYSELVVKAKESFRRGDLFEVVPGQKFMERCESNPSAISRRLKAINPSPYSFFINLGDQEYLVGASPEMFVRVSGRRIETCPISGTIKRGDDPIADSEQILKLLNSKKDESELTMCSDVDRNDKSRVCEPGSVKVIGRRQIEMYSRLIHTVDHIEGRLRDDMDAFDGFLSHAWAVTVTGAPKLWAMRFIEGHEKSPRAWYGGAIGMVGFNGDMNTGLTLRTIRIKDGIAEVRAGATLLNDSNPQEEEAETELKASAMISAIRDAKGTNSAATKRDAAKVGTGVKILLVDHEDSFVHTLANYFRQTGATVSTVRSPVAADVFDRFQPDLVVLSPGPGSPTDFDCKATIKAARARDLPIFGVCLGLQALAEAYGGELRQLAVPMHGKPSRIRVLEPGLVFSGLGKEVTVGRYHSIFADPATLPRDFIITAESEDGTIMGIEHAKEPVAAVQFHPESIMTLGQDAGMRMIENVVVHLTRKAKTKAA
Protocol: as §3
The standard assay for Agrobacterium tumefaciens AS was performed at 25° C. in an assay buffer containing 100 mM potassium phosphate, pH 7.0, 1 0 mM MgCl2, 1 mM dithiothreitol, 200 μM chorismate and 10 mM L-glutamine. The reaction was started by adding 30 μl of enzyme to the reaction mixture and mixing. The formation of anthranilate was directly monitored by the absorbance increase at […] for 3 min. Initial rate of reaction was calculated as unit absorbance increase per second based on the slope of the absorbance change over the reaction time. Km for chorismate (Km^Cho) was determined in the total volume of 1 ml assay buffer containing 100 mM potassium phosphate, pH 7.0, 10 mM MgCl2, 1 mM dithiothreitol with 10 mM L-glutamine and varying the concentration of chorismate between 2.5–100 μM chorismate. The Km for glutamine (Km^Gln) was determined in the total volume of 1 ml assay buffer containing 100 mM potassium phosphate, pH 7.0, 10 mM MgCl2, 1 mM dithiothreitol with 200 μM chorismate and varying the concentration of L-glutamine between 0.1–2 mM L-glutamine. IC50 for tryptophan (IC50TrP) was determined with in the total volume of 1 ml assay buffer containing 100 mM potassium phosphate, pH 7.0, 10 mM MgCl2, 1 mM dithiothreitol, 10 mM L-glutamine, 200 μM chorismate and varying the concentration of L-tryptophan between 0.1–10 mM L-tryptophan. Kinetic parameters and IC50 of AS were calculated after fitting the data to a non-linear regression program (GraFit).

[3] = biological target: Agrobacterium tumefaciens anthranilate synthase variant P293A, SEQ ID NO:63 (Agrobacterium fabrum, UniProt A9CI26, P293A); test: Anthranilate synthase enzyme assay and kinetic analysis, P293A mutant
Agrobacterium tumefaciens anthranilate synthase variant P293A, SEQ ID NO:63, sequence (A9CI26 whole entry P293A): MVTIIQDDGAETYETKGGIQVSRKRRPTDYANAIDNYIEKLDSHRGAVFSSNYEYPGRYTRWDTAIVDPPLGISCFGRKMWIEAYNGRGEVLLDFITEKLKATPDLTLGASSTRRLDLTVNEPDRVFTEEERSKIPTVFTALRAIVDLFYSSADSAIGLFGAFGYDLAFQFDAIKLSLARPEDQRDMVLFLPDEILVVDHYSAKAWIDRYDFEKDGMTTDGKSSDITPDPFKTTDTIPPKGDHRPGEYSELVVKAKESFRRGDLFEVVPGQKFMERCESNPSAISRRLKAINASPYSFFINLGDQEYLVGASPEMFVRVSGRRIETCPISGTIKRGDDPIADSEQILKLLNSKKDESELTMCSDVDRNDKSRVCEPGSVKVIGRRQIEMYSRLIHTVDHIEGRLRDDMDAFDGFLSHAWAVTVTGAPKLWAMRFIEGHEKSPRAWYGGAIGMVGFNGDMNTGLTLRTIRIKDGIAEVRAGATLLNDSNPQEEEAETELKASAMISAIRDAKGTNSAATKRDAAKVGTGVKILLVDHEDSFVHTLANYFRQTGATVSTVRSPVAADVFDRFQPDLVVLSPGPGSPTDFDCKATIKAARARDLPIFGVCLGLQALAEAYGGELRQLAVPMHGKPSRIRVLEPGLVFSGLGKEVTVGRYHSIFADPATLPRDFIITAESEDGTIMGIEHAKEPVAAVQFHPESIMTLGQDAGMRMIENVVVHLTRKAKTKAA
Text: as §1, §2, §3, §4

[4] = biological target: Agrobacterium tumefaciens anthranilate synthase variant P293G, SEQ ID NO:64 (Agrobacterium fabrum, UniProt A9CI26, P293G); test: Anthranilate synthase enzyme assay and kinetic analysis, P293G mutant
Text: as §1, §2, §3, §4

[5] = biological target: Agrobacterium tumefaciens anthranilate synthase variant S51F, SEQ ID NO:60 (Agrobacterium fabrum, UniProt A9CI26, S51F); test: Anthranilate synthase enzyme assay and kinetic analysis, S51F mutant
Agrobacterium tumefaciens anthranilate synthase variant S51F, SEQ ID NO:60, sequence (A9CI26 whole entry S51F): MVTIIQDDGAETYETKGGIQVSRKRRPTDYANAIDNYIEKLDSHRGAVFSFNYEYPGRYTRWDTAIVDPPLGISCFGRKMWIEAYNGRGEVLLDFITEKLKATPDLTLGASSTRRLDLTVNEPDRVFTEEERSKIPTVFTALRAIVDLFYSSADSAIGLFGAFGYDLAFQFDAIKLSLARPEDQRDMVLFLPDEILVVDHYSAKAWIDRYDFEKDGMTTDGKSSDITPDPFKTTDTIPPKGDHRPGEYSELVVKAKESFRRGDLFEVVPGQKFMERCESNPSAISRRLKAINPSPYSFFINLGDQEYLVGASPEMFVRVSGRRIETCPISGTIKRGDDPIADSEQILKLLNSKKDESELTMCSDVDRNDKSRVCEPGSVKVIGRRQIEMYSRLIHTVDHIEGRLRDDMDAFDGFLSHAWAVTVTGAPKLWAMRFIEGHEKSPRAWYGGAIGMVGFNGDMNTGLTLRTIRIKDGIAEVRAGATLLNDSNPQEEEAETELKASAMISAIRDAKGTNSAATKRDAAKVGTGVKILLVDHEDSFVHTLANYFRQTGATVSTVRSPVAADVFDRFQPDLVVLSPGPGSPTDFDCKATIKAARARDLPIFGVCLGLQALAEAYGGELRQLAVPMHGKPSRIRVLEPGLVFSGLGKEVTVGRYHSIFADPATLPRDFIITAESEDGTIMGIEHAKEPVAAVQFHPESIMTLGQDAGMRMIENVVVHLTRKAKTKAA
Text: as §1, §2, §3, §4

[6] = biological target: Agrobacterium tumefaciens anthranilate synthase variant S50K, SEQ ID NO:69 (Agrobacterium fabrum, UniProt A9CI26, S50K); test: Anthranilate synthase enzyme assay and kinetic analysis, S50K mutant
Agrobacterium tumefaciens anthranilate synthase variant S50K, SEQ ID NO:69, sequence (A9CI26 whole entry S50K): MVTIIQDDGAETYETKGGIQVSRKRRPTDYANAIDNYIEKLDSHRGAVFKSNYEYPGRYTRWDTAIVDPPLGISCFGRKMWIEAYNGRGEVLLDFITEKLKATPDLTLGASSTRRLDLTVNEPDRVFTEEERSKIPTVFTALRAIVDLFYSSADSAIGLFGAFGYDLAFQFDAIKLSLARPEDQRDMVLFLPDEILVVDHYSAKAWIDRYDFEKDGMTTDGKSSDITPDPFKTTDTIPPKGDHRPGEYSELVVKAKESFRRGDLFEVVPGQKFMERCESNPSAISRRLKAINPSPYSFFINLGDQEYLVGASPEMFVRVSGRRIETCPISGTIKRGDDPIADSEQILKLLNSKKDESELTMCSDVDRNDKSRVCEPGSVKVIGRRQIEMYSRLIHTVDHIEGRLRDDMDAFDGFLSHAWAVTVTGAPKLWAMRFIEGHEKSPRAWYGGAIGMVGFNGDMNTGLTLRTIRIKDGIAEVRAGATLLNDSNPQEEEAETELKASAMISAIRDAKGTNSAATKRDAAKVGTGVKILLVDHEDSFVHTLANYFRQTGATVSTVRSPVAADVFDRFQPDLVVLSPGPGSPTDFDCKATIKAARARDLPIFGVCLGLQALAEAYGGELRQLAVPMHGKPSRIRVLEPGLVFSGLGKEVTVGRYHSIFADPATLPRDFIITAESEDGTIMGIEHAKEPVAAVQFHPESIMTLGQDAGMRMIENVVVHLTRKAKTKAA
Text: as §1, §2, §3, §4

[7] = biological target: Agrobacterium tumefaciens anthranilate synthase variant V48Y, SEQ ID NO:59 (Agrobacterium fabrum, UniProt A9CI26, V48Y); test: Anthranilate synthase enzyme assay and kinetic analysis, V48Y mutant
Agrobacterium tumefaciens anthranilate synthase variant V48Y, SEQ ID NO:59, sequence (A9CI26 whole entry V48Y): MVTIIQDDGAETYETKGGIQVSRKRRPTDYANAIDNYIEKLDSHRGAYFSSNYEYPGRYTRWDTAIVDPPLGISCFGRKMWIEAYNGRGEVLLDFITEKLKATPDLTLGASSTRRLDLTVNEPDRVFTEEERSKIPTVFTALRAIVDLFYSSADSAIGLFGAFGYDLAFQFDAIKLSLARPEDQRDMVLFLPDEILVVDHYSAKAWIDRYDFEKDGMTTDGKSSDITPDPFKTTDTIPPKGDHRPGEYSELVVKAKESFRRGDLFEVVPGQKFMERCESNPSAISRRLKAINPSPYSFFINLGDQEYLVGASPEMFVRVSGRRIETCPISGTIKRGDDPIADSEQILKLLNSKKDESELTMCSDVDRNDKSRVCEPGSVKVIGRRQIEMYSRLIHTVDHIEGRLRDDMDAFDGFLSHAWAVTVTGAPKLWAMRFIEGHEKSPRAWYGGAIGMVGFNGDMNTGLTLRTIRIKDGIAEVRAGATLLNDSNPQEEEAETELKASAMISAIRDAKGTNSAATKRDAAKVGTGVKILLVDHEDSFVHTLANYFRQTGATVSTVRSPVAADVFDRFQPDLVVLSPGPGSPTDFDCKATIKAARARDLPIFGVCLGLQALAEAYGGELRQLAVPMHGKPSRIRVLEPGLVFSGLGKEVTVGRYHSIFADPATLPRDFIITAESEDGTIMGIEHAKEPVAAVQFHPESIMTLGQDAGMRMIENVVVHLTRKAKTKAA
Text: as §1, §2, §3, §4

[8] = biological target: Agrobacterium tumefaciens anthranilate synthase variant V48F, SEQ ID NO:58 (Agrobacterium fabrum, UniProt A9CI26, V48F); test: Anthranilate synthase enzyme assay and kinetic analysis, V48F mutant
Agrobacterium tumefaciens anthranilate synthase variant V48F, SEQ ID NO:58, sequence (A9CI26 whole entry V48F): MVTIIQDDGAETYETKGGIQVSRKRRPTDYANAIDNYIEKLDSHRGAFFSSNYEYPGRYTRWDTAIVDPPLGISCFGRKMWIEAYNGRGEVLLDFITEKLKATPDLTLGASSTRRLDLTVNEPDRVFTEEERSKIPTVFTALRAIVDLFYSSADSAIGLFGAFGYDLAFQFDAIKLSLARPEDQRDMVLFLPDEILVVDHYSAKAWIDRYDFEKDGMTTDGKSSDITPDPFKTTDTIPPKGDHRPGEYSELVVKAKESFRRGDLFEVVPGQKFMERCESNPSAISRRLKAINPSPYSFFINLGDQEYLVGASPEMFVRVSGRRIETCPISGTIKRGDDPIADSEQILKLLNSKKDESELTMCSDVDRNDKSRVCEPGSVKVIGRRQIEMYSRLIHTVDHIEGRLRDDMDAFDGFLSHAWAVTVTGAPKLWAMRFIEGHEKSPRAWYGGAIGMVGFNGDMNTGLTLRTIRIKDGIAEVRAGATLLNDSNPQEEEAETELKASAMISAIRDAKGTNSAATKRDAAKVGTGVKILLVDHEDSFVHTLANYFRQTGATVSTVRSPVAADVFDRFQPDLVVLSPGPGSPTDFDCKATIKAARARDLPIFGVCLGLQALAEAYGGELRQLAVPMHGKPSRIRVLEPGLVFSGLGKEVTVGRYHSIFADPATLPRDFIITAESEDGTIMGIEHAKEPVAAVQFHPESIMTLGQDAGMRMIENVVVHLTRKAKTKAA
Text: as §1, §2, §3, §4

[9] = biological target: Agrobacterium tumefaciens anthranilate synthase variant N52F, SEQ ID NO:62 (Agrobacterium fabrum, UniProt A9CI26, N52F); test: Anthranilate synthase enzyme assay and kinetic analysis, N52F mutant
Text: as §1, §2, §3, §4

`N[C@@H](Cc1c[nH]c2ccccc12)C(=O)O` [L-tryptophan] showed an IC50 [1] of 1500 µM, an IC50 [2] of 5 µM and an IC50 ([2]; read-out: IC50^trp, wild type, Table J (5-MT resistant clones)) of 5 µM. The IC50 [3] was 14 µM, the IC50 [4] was 17 µM and the IC50 [5] was over 32000 µM. For the same compound, the IC50 [6] was 0.1 µM, the IC50 [7] was 650 µM and the IC50 [8] was 150 µM. It also gave an IC50 [9] of 41 µM.
